Measured values taken from US20020022826A1, “Burst electrode” (priority 2000, published 2002).

Conditions: bare metal electrodes, nitrogen atmosphere
Excerpt: Using stainless steel electrodes in aqueous NaPSS electrolyte, conditions were developed for the reproducible synthesis, loading, and release of bioactive cations from PPy/PSS films. After PPy/PSS film preparation, the polymer-modified electrodes were removed from the electrolyte, washed with water, and their redox properties studied by cyclic voltammetry (CV).

NCCc1ccc(O)c(O)c1 [Dopamine, dopamine]
potential at which dopamine oxidizes: +0.6 V vs. Ag/AgCl
